Measurements as given in paper PMC9067983, “Identification of highly selective type II kinase inhibitors with chiral peptidomimetic tails” (Journal of Enzyme Inhibition and Medicinal Chemistry, 2022).
Where a SMILES comes first, the peptide text is derived from it. [ ]: non-standard residue; d: D form. The star is where a group is joined. X1 = Cc1ccc(Nc2ncc3c(n2)N(C)C(=O)N(c2cc(C(=O)*)ccc2C)C3)cn1; Aib = CC(C)(N)C(=O)O

Columns and labels:
Test in all cases: kinase selectivity profiling
Assay type in all cases: biochemical
Settings in all cases: 10µM ATP, read-out: % inhibition (relative to DMSO)
[1] = biological target: T1, GRK1 (Homo sapiens, UniProt Q15835)
T1 construct: purchased Reaction Biology Corp
Method: (§1) Full panel kinase profiling and kinase IC50 measurement were performed by using Reaction Biology Corp. (San Diego, USA).

[2] = biological target: T2, MELK (Homo sapiens, UniProt Q14680)
T2 construct: purchased Reaction Biology Corp
Method: as §1

[3] = biological target: T3, DAPK2 (Homo sapiens, UniProt Q9UIK4)
T3 construct: purchased Reaction Biology Corp
Method: as §1

[4] = biological target: T4, MSK2/RPS6KA4 (Homo sapiens, UniProt O75676)
T4 construct: purchased Reaction Biology Corp
Method: as §1

[5] = biological target: T5, PLK3 (Homo sapiens, UniProt Q9H4B4)
T5 construct: purchased Reaction Biology Corp
Method: as §1

[6] = biological target: T6, MYO3b (Homo sapiens, UniProt Q8WXR4)
T6 construct: purchased Reaction Biology Corp
Method: as §1

[7] = biological target: T7, Aurora C (Homo sapiens, UniProt Q9UQB9)
T7 construct: purchased Reaction Biology Corp
Method: as §1

[8] = biological target: T8, MEKK3 (Homo sapiens, UniProt Q99759)
T8 construct: purchased Reaction Biology Corp
Method: as §1

[9] = biological target: T9, PLK1 (Homo sapiens, UniProt P53350)
T9 construct: purchased Reaction Biology Corp
Method: as §1

[10] = biological target: T10, c-Src (Homo sapiens, UniProt P12931)
T10 construct: purchased Reaction Biology Corp
Method: as §1

[11] = biological target: T11, CAMKK2 (Homo sapiens, UniProt Q96RR4)
T11 construct: purchased Reaction Biology Corp
Method: as §1

[12] = biological target: T12, CDK9/cyclin T2 (Homo sapiens, UniProt P50750)
T12 construct: purchased Reaction Biology Corp
Method: as §1

[13] = biological target: T13, SBK1 (Homo sapiens, UniProt Q52WX2)
T13 construct: purchased Reaction Biology Corp
Method: as §1

[14] = biological target: T14, PKA (Homo sapiens, UniProt P17612)
T14 construct: purchased Reaction Biology Corp
Method: as §1

[15] = biological target: T15, TXK (Homo sapiens, UniProt P42681)
T15 construct: purchased Reaction Biology Corp
Method: as §1

[16] = biological target: T16, IKKe/IKBKE (Homo sapiens, UniProt Q14164)
T16 construct: purchased Reaction Biology Corp
Method: as §1

[17] = biological target: T17, LCK2/ICK (Homo sapiens, UniProt Q9UPZ9)
T17 construct: purchased Reaction Biology Corp
Method: as §1

[18] = biological target: T18, PKG1a (Homo sapiens, UniProt Q13976)
T18 construct: purchased Reaction Biology Corp
Method: as §1

[19] = biological target: T19, BMPR2 (Homo sapiens, UniProt Q13873)
T19 construct: purchased Reaction Biology Corp
Method: as §1

[20] = biological target: T20, SIK1 (Homo sapiens, UniProt P57059)
T20 construct: purchased Reaction Biology Corp
Method: as §1

[21] = biological target: T21, GSK3b (Homo sapiens, UniProt P49841)
T21 construct: purchased Reaction Biology Corp
Method: as §1

[22] = biological target: T22, ERK1 (Homo sapiens, UniProt P27361)
T22 construct: purchased Reaction Biology Corp
Method: as §1

[23] = biological target: T23, PIM3 (Homo sapiens, UniProt Q86V86)
T23 construct: purchased Reaction Biology Corp
Method: as §1

[24] = biological target: T24, CDK1/cyclin B (Homo sapiens, UniProt P06493)
T24 construct: purchased Reaction Biology Corp
Method: as §1

[25] = biological target: T25, LIMK2 (Homo sapiens, UniProt P53671)
T25 construct: purchased Reaction Biology Corp
Method: as §1

[26] = biological target: T26, IGF1R (Homo sapiens, UniProt P08069)
T26 construct: purchased Reaction Biology Corp
Method: as §1

[27] = biological target: T27, MEKK6 (Homo sapiens, UniProt O95382)
T27 construct: purchased Reaction Biology Corp
Method: as §1

[28] = biological target: T28, MSK1/RPS6KA5 (Homo sapiens, UniProt O75582)
T28 construct: purchased Reaction Biology Corp
Method: as §1

[29] = biological target: T29, PKCmu/PRKD1 (Homo sapiens, UniProt Q15139)
T29 construct: purchased Reaction Biology Corp
Method: as §1

[30] = biological target: T30, TRKC (Homo sapiens, UniProt Q16288)
T30 construct: purchased Reaction Biology Corp
Method: as §1

[31] = biological target: T31, TAOK2/TAO1 (Homo sapiens, UniProt Q9UL54)
T31 construct: purchased Reaction Biology Corp
Method: as §1

[32] = biological target: T32, PKN1/PRK1 (Homo sapiens, UniProt Q16512)
T32 construct: purchased Reaction Biology Corp
Method: as §1

[33] = biological target: T33, STK25/YSK1 (Homo sapiens, UniProt O00506)
T33 construct: purchased Reaction Biology Corp
Method: as §1

[34] = biological target: T34, DDR2 (Homo sapiens, UniProt Q16832)
T34 construct: purchased Reaction Biology Corp
Method: as §1

[35] = biological target: T35, CHK2 (Homo sapiens, UniProt O96017)
T35 construct: purchased Reaction Biology Corp
Method: as §1

[36] = biological target: T36, PKG1b (Homo sapiens, UniProt Q13976)
T36 construct: purchased Reaction Biology Corp
Method: as §1

[37] = biological target: T37, MARK1 (Homo sapiens, UniProt Q9P0L2)
T37 construct: purchased Reaction Biology Corp
Method: as §1

[38] = biological target: T38, Lyn (Homo sapiens, UniProt P07948)
T38 construct: purchased Reaction Biology Corp
Method: as §1

[39] = biological target: T39, PKN2/PRK2 (Homo sapiens, UniProt Q16513)
T39 construct: purchased Reaction Biology Corp
Method: as §1

[40] = biological target: T40, PAK2 (Homo sapiens, UniProt Q13177)
T40 construct: purchased Reaction Biology Corp
Method: as §1

[41] = biological target: T41, NEK8 (Homo sapiens, UniProt Q86SG6)
T41 construct: purchased Reaction Biology Corp
Method: as §1

[42] = biological target: T42, BRSK2 (Homo sapiens, UniProt Q8IWQ3)
T42 construct: purchased Reaction Biology Corp
Method: as §1

[43] = biological target: T43, ROCK1 (Homo sapiens, UniProt Q13464)
T43 construct: purchased Reaction Biology Corp
Method: as §1

T22 sequence (P27361 whole entry): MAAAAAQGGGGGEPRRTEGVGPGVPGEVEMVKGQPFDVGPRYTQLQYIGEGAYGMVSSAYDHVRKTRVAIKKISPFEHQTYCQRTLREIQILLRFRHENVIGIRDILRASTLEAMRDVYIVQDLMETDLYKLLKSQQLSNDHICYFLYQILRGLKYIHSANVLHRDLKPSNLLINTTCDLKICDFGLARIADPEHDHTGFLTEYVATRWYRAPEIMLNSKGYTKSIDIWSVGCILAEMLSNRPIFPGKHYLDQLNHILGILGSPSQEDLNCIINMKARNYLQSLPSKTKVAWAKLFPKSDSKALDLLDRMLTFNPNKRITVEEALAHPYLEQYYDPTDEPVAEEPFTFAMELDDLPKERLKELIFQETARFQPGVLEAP
T32 sequence (Q16512 whole entry): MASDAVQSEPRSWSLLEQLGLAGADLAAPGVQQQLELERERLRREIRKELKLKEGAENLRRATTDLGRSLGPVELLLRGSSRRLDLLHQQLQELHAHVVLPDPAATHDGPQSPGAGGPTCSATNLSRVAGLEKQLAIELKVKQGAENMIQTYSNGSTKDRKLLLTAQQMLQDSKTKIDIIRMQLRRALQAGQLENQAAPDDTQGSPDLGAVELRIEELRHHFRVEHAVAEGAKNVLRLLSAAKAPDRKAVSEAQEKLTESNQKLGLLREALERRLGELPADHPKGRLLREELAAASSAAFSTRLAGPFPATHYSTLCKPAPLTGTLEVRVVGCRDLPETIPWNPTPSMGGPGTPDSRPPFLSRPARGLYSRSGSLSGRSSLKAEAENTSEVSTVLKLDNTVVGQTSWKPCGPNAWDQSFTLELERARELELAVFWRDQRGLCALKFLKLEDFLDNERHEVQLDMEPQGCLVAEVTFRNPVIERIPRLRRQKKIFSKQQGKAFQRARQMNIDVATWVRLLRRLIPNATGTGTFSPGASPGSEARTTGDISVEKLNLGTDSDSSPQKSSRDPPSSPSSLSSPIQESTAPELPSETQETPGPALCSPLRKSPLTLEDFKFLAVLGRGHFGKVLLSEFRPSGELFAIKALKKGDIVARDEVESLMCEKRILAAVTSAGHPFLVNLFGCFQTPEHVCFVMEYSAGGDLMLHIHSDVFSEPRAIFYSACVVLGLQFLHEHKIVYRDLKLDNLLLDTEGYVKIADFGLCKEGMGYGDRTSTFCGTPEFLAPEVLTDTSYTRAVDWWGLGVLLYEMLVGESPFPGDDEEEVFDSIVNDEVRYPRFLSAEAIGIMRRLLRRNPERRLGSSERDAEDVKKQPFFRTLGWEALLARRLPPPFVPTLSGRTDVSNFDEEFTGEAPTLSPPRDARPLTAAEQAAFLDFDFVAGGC
T31 sequence (Q9UL54 whole entry): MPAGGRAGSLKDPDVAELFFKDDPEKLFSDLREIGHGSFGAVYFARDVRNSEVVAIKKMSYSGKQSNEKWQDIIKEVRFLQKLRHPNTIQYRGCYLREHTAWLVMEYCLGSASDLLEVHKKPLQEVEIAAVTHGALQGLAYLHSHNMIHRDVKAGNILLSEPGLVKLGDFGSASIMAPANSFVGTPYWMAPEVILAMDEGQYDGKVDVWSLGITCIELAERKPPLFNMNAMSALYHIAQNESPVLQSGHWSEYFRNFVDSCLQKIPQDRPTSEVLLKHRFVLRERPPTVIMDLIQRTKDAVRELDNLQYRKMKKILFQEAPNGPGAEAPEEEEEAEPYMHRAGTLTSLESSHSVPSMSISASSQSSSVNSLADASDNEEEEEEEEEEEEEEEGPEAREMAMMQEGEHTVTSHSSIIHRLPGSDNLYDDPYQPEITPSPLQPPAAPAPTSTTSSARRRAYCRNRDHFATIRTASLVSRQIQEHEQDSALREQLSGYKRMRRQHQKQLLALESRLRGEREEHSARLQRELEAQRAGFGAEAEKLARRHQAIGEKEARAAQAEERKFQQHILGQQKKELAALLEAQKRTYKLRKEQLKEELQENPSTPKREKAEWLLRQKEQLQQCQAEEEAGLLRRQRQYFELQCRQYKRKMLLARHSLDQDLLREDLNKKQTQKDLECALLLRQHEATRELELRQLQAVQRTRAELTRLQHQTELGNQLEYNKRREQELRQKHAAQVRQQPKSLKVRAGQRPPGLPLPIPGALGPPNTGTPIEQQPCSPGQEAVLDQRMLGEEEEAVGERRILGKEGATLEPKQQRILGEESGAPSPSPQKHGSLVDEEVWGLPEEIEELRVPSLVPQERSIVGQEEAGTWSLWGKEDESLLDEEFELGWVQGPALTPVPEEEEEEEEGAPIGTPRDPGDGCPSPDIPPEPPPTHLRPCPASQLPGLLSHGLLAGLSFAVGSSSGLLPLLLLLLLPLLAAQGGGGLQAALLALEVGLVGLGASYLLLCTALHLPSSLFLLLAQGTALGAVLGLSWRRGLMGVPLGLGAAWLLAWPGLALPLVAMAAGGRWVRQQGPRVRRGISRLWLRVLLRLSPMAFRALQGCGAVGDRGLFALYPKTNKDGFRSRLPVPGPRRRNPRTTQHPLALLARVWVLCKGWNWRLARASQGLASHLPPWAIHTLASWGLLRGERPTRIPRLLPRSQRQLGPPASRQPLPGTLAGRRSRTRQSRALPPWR
T3 sequence (Q9UIK4 whole entry): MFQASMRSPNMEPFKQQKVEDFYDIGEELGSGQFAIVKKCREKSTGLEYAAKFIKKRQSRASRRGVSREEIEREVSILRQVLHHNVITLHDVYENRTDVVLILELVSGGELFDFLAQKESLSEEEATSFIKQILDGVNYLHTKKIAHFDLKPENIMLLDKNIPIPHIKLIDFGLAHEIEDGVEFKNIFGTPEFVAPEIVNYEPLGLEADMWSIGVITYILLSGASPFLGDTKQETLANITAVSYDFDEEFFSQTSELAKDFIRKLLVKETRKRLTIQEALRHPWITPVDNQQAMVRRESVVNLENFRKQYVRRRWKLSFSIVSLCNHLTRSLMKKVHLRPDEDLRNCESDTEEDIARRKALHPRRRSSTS
T21 sequence (P49841 whole entry): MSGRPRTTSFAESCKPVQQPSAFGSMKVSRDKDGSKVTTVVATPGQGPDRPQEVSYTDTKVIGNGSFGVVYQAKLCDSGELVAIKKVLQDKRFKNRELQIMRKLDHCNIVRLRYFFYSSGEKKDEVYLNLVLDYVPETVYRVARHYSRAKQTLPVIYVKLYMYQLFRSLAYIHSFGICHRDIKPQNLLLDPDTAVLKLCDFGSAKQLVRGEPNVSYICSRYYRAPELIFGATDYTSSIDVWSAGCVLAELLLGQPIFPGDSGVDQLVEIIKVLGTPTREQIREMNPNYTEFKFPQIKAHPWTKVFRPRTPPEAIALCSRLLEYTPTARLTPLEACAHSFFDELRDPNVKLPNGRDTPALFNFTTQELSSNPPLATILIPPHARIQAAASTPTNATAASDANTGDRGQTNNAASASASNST
T33 sequence (O00506 whole entry): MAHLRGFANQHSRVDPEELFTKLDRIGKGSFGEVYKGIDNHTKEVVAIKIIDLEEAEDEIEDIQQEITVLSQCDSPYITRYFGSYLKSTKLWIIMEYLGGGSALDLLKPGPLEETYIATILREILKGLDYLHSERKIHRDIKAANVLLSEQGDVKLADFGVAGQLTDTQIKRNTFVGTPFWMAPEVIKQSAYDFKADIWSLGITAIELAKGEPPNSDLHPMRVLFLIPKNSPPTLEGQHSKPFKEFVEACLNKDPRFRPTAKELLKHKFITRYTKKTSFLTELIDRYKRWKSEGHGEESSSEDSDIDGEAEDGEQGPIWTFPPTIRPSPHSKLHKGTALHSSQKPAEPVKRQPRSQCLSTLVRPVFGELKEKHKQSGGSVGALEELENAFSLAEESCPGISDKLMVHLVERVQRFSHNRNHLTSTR
T36 sequence (Q13976 1-686 isoform Q13976-2): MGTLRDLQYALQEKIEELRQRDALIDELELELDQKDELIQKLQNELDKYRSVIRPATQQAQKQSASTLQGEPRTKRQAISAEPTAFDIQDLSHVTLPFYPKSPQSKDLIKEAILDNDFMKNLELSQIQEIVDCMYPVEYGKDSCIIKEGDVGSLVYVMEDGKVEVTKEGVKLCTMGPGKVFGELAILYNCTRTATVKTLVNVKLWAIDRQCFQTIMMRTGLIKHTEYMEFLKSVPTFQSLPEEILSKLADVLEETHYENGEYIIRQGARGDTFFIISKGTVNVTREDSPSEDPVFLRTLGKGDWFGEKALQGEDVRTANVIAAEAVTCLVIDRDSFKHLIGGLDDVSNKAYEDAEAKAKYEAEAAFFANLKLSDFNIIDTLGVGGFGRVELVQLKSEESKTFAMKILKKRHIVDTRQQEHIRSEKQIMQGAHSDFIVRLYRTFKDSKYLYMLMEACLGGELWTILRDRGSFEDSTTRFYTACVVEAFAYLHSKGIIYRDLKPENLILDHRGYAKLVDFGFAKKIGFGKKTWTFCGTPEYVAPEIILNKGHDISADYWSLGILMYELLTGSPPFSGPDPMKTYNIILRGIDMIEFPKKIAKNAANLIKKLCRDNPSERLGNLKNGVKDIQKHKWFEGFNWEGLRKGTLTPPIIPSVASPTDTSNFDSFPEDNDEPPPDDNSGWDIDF
T7 sequence (Q9UQB9 whole entry): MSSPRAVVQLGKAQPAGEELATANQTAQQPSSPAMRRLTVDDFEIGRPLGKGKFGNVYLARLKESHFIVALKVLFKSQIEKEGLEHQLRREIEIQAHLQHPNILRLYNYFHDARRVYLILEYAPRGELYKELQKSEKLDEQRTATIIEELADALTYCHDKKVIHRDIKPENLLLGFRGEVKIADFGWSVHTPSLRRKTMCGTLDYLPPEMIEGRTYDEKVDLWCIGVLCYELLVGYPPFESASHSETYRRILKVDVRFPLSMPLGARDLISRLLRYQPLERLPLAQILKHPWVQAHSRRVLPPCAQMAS

## Cc1ccc(Nc2ncc3c(n2)N(C)C(=O)N(c2cc(C(=O)N[C@H](C(=O)N4CCC[C@H]4C(=O)NC(C)(C)C(=O)N[C@@H](CC(C)C)C(=O)N(C)C)C(C)C)ccc2C)C3)cn1 [7a, (S)-N-(1-(((S)-1-(dimethylamino)-4-methyl-1-oxopentan-2-yl)amino)-2-methyl-1-oxopropan-2-yl)-1-((4-methyl-3-(1-methyl-7-((6-methylpyridin-3-yl)amino)-2-oxo-1,4-dihydropyrimido[4,5-d]pyrimidin-3(2H)-yl)benzoyl)-L-valyl)pyrrolidine-2-carboxamide] (X1-VP[Aib]L-NMe2)
[1]
  inhibition at 1 µM: 0%
[2]
  inhibition at 1 µM: 4%
[3]
  inhibition at 1 µM: 1%
[4]
  inhibition at 1 µM: 9%
[5]
  inhibition at 1 µM: 3%
[6]
  inhibition at 1 µM: 0%
[7]
  inhibition at 1 µM: 0%
[8]
  inhibition at 1 µM: 11%
[9]
  inhibition at 1 µM: 0%
[10]
  inhibition at 1 µM: 64%
[11]
  inhibition at 1 µM: 10%
[12]
  inhibition at 1 µM: 0%
[13]
  inhibition at 1 µM: 0%
[14]
  inhibition at 1 µM: 6%
[15]
  inhibition at 1 µM: 0%
[16]
  inhibition at 1 µM: 3%
[17]
  inhibition at 1 µM: 0%
[18]
  inhibition at 1 µM: 0%
[19]
  inhibition at 1 µM: 10%
[20]
  inhibition at 1 µM: 10%
[21]
  inhibition at 1 µM: 0%
[22]
  inhibition at 1 µM: 7%
[23]
  inhibition at 1 µM: 0%
[24]
  inhibition at 1 µM: 7%
[25]
  inhibition at 1 µM: 12%
[26]
  inhibition at 1 µM: 0%
[27]
  inhibition at 1 µM: 0%
[28]
  inhibition at 1 µM: 0%
[29]
  inhibition at 1 µM: 0%
[30]
  inhibition at 1 µM: 21%
[31]
  inhibition at 1 µM: 4%
[32]
  inhibition at 1 µM: 1%
[33]
  inhibition at 1 µM: 3%
[34]
  inhibition at 1 µM: 58%
[35]
  inhibition at 1 µM: 4%
[36]
  inhibition at 1 µM: 0%
[37]
  inhibition at 1 µM: 0%
[38]
  inhibition at 1 µM: 73%
[39]
  inhibition at 1 µM: 0%
[40]
  inhibition at 1 µM: 0%
[41]
  inhibition at 1 µM: 1%
[42]
  inhibition at 1 µM: 8%
[43]
  inhibition at 1 µM: 13%
